Results from patent publication US10941157B2, “Pesticidal compositions and uses thereof” (Gilead Apollo, LLC, priority 2015, dated 2021).
In brackets after ≈: the same amount, converted by molar mass. Where two headings read alike, the source gives them in different places.

Key:
Type in all cases: cell-based
Botrtyis cinerea (Bc) = assay: In vitro pathogen growth inhibition assay, Bc; settings: 48 h
Method in brief: (§1)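 Value reported is the compound concentration reaching ≥90% growth inhibition, from OD readings at 24 and 48 h after blank subtraction, confirmed visually. Inoculum was spores diluted in 17% V8 medium, except Rs, using 1.5 mm mycelial plugs in ¼ PDB; actual compound concentration corrected via OD600.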

[1] = test system: Collectotrichum graminicola (Cg); assay: In vitro pathogen growth inhibition assay, Cg; settings: 48 h
Method in brief: as §1

Diplodia maydis (Dm) = assay: In vitro pathogen growth inhibition assay, Dm; settings: Stenocarpella maydis, 48 h
Method in brief: (§2)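 Spores of Dm, Fv and Pc were diluted in 17% V8 liquid medium; Rs used 1.5 mm mycelial plugs in ¼ PDB. Compounds from 2.5 mg/ml DMSO stocks were combined with inoculum, growth was read by OD600 at 24 and 48 h with blank subtraction, and the reported value is the concentration giving ≥90% inhibition.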

[2] = test system: Fusarium moniliforme (Fm); assay: In vitro pathogen growth inhibition assay, Fm; settings: Fusarium verticillioides
Method in brief: as §1

[3] = test system: Fusarium virguliforme (Fv); assay: In vitro pathogen growth inhibition assay, Fv
Method in brief: as §2

[4] = test system: Phytophthora capsici (Pc); assay: In vitro pathogen growth inhibition assay, Pc; settings: 48 h
Method in brief: as §2

Rhizoctonia solani (Rs) = assay: In vitro pathogen growth inhibition assay, Rs (mycelial plugs); settings: Rhizoctonia solani, 48 h
Method in brief: as §2

Septoria tritici (St) = assay: In vitro pathogen growth inhibition assay, St; settings: Zymoseptoria tritici, 48 h
Method in brief: as §1

[5] = ≥90% growth inhibition, 48 hours, vs 2% DMSO control, read-out: Compound Concentration (ppm) sufficient for ≥90% inhibition of Bc
[6] = ≥90% growth inhibition, 48 hours, vs 2% DMSO control, read-out: Compound Concentration (ppm) sufficient for ≥90% inhibition of Cg
[7] = ≥90% growth inhibition, 48 hours, vs 2% DMSO control, read-out: Compound Concentration (ppm) sufficient for ≥90% inhibition of Dm
[8] = ≥90% growth inhibition, 48 hours, vs 2% DMSO control, read-out: Compound Concentration (ppm) sufficient for ≥90% inhibition of Fm
[9] = ≥90% growth inhibition, 48 hours, vs 2% DMSO control, read-out: Compound Concentration (ppm) sufficient for ≥90% inhibition of Fv
[10] = ≥90% growth inhibition, 48 hours, vs 2% DMSO control, read-out: Compound Concentration (ppm) sufficient for ≥90% inhibition of Pc
[11] = ≥90% growth inhibition, mycelial plugs, 48 hours, vs 2% DMSO control, read-out: Compound Concentration (ppm) sufficient for ≥90% inhibition of Rs
[12] = ≥90% growth inhibition, 48 hours, vs 2% DMSO control, read-out: Compound Concentration (ppm) sufficient for ≥90% inhibition of St
[13] = ≥90% inhibition, 48 hours vs 2% DMSO control, read-out: Compound Concentration (ppm) sufficient for ≥90% inhibition of growth, Bc
[14] = ≥90% inhibition, 48 hours vs 2% DMSO control, read-out: Compound Concentration (ppm) sufficient for ≥90% inhibition of growth, Cg
[15] = ≥90% inhibition, 48 hours vs 2% DMSO control, read-out: Compound Concentration (ppm) sufficient for ≥90% inhibition of growth, Dm
[16] = ≥90% inhibition, 48 hours vs 2% DMSO control, read-out: Compound Concentration (ppm) sufficient for ≥90% inhibition of growth, Fm
[17] = ≥90% inhibition, 48 hours vs 2% DMSO control, read-out: Compound Concentration (ppm) sufficient for ≥90% inhibition of growth, Fv
[18] = ≥90% inhibition, 48 hours vs 2% DMSO control, read-out: Compound Concentration (ppm) sufficient for ≥90% inhibition of growth, Pc
[19] = ≥90% inhibition, mycelial plugs, 48 hours vs 2% DMSO control, read-out: Compound Concentration (ppm) sufficient for ≥90% inhibition of growth, Rs
[20] = ≥90% inhibition, 48 hours vs 2% DMSO control, read-out: Compound Concentration (ppm) sufficient for ≥90% inhibition of growth, St

Structure (SMILES)	IC90 (Botrtyis cinerea (Bc); [5])	IC90 [1, 6]	IC90 (Diplodia maydis (Dm); [7])	IC90 [2, 8]	IC90 [3, 9]	IC90 [4, 10]	IC90 (Rhizoctonia solani (Rs); [11])	IC90 (Septoria tritici (St); [12])	IC90 (Botrtyis cinerea (Bc); [13])	IC90 [1, 14]	IC90 (Diplodia maydis (Dm); [15])	IC90 [2, 16]	IC90 [3, 17]	IC90 [4, 18]	IC90 (Rhizoctonia solani (Rs); [19])	IC90 (Septoria tritici (St); [20])	also measured
CCOC(=O)c1sc2c(c1C)c(=O)n(C(C)(C)C(N)=O)c(=O)n2C[C@H](OCCO)c1cc(F)ccc1OC [Compound I-183]	10 µg/mL (≈ 18.1 µM)	> 50 µg/mL	> 50 µg/mL	2 µg/mL (≈ 3.63 µM)	50 µg/mL (≈ 90.6 µM)	> 50 µg/mL	2 µg/mL (≈ 3.63 µM)	> 50 µg/mL	–	–	–	–	–	–	–	–	–
Cc1ccc(F)cc1[C@H](Cn1c(=O)n(C(C)(C)C(=O)NC(C)C)c(=O)c2c(C)c(-n3nccn3)sc21)OCCO [Compound I-245]	0.4 µg/mL (≈ 0.698 µM)	0.4 µg/mL (≈ 0.698 µM)	2 µg/mL (≈ 3.49 µM)	0.08 µg/mL (≈ 0.14 µM)	0.08 µg/mL (≈ 0.14 µM)	50 µg/mL (≈ 87.3 µM)	0.08 µg/mL (≈ 0.14 µM)	≥ 2 µg/mL	–	–	–	–	–	–	–	–	–
CCNC(=O)C(C)(C)n1c(=O)c2c(C)c(-n3cccn3)sc2n(C[C@H](OCCC#N)c2ccccc2OC)c1=O [Compound I-232]	10 µg/mL (≈ 17.7 µM)	10 µg/mL (≈ 17.7 µM)	50 µg/mL (≈ 88.5 µM)	2 µg/mL (≈ 3.54 µM)	0.4 µg/mL (≈ 0.708 µM)	> 50 µg/mL	2 µg/mL (≈ 3.54 µM)	> 50 µg/mL	–	–	–	–	–	–	–	–	–
COc1ccc(F)cc1[C@H](Cn1c(=O)n(C(C)(C)C(=O)NC(C)C)c(=O)c2c(C)c(-n3cccn3)sc21)OC1CCC(=O)CC1 [Compound I-048]	–	–	–	–	–	–	–	–	0.4 µg/mL (≈ 0.625 µM)	10 µg/mL (≈ 15.6 µM)	2 µg/mL (≈ 3.13 µM)	0.08 µg/mL (≈ 0.125 µM)	2 µg/mL (≈ 3.13 µM)	> 50 µg/mL	2 µg/mL (≈ 3.13 µM)	> 50 µg/mL	–
Cc1c(-n2nccn2)sc2c1c(=O)n(C(C)(C)C(=O)NC1CCC1)c(=O)n2C[C@H](OC(C)C)c1cc(F)ccc1OCC#N [Compound I-267]	0.4 µg/mL (≈ 0.641 µM)	2 µg/mL (≈ 3.21 µM)	2 µg/mL (≈ 3.21 µM)	0.08 µg/mL (≈ 0.128 µM)	0.4 µg/mL (≈ 0.641 µM)	> 50 µg/mL	0.4 µg/mL (≈ 0.641 µM)	> 50 µg/mL	–	–	–	–	–	–	–	–	–
COc1ccc(F)cc1[C@H](Cn1c(=O)n(C(C)(C)C(=O)N2CCCCC2)c(=O)c2c(C)c(-n3nccn3)sc21)OC(C)C [Compound I-022]	–	–	–	–	–	–	–	–	0.08 µg/mL (≈ 0.131 µM)	0.08 µg/mL (≈ 0.131 µM)	0.08 µg/mL (≈ 0.131 µM)	0.08 µg/mL (≈ 0.131 µM)	≥ 0.08 µg/mL	> 50 µg/mL	0.08 µg/mL (≈ 0.131 µM)	≥ 2 µg/mL	–
COc1ccc(F)cc1[C@H](Cn1c(=O)n(C(C)(C)C(=O)N2CCCC2)c(=O)c2c(C)c(-n3nccn3)sc21)OC(C)C [Compound I-023]	–	–	–	–	–	–	–	–	0.4 µg/mL (≈ 0.668 µM)	0.08 µg/mL (≈ 0.134 µM)	0.08 µg/mL (≈ 0.134 µM)	0.08 µg/mL (≈ 0.134 µM)	≥ 0.08 µg/mL	> 50 µg/mL	0.08 µg/mL (≈ 0.134 µM)	> 10 µg/mL	–
COc1ccc(F)cc1[C@@H](O)Cn1c(=O)n(C(C)(C)C(N)=O)c(=O)c2c(C)c(-n3nccn3)sc21 [Compound I-221]	–	–	–	–	–	–	–	–	–	–	–	–	–	–	–	–	IC90 (Botrtyis cinerea (Bc); concentration sufficient to ≥90% inhibition of growth, 48 hours vs 2% DMSO control, read-out: Compound Concentration (ppm) for ≥90% inhibition, Bc): 10 µg/mL (≈ 19.9 µM); IC90 ([1]; concentration sufficient to ≥90% inhibition of growth, 48 hours vs 2% DMSO control, read-out: Compound Concentration (ppm) for ≥90% inhibition, Cg): 50 µg/mL (≈ 99.5 µM); IC90 (Diplodia maydis (Dm); concentration sufficient to ≥90% inhibition of growth, 48 hours vs 2% DMSO control, read-out: Compound Concentration (ppm) for ≥90% inhibition, Dm): > 50 µg/mL; IC90 ([2]; concentration sufficient to ≥90% inhibition of growth, 48 hours vs 2% DMSO control, read-out: Compound Concentration (ppm) for ≥90% inhibition, Fm): 10 µg/mL (≈ 19.9 µM); IC90 ([3]; concentration sufficient to ≥90% inhibition of growth, 48 hours vs 2% DMSO control, read-out: Compound Concentration (ppm) for ≥90% inhibition, Fv): 50 µg/mL (≈ 99.5 µM); IC90 ([4]; concentration sufficient to ≥90% inhibition of growth, 48 hours vs 2% DMSO control, read-out: Compound Concentration (ppm) for ≥90% inhibition, Pc): > 50 µg/mL; IC90 (Rhizoctonia solani (Rs); concentration sufficient to ≥90% inhibition of growth, 48 hours vs 2% DMSO control, read-out: Compound Concentration (ppm) for ≥90% inhibition, Rs): > 50 µg/mL; IC90 (Septoria tritici (St); concentration sufficient to ≥90% inhibition of growth, 48 hours vs 2% DMSO control, read-out: Compound Concentration (ppm) for ≥90% inhibition, St): > 50 µg/mL
CCNC(=O)[C@@H](C)n1c(=O)c2c(C)c(-n3cccn3)sc2n(C[C@H](OCCC#N)c2cc(F)ccc2OC)c1=O [Compound I-295]	2 µg/mL (≈ 3.52 µM)	2 µg/mL (≈ 3.52 µM)	10 µg/mL (≈ 17.6 µM)	0.4 µg/mL (≈ 0.703 µM)	2 µg/mL (≈ 3.52 µM)	> 50 µg/mL	2 µg/mL (≈ 3.52 µM)	> 50 µg/mL	–	–	–	–	–	–	–	–	–
COc1ccccc1[C@H](Cn1c(=O)n([C@H](C)C(=O)NC(C)C)c(=O)c2c(C)c(-n3cccn3)sc21)OCCC#N [Compound I-333]	2 µg/mL (≈ 3.54 µM)	2 µg/mL (≈ 3.54 µM)	10 µg/mL (≈ 17.7 µM)	0.4 µg/mL (≈ 0.708 µM)	10 µg/mL (≈ 17.7 µM)	50 µg/mL (≈ 88.5 µM)	2 µg/mL (≈ 3.54 µM)	> 50 µg/mL	–	–	–	–	–	–	–	–	–
